Experimental data reported in US20170050957A1, “4-AMINO-6-(HETEROCYCLIC)PICOLINATES AND 6-AMINO-2-(HETEROCYCLIC)PYRIMIDINE-4-CARBOXYLATES AND THEIR USE AS HERBICIDES” (Dow AgroSciences LLC, priority 2013, published 2017).
Where two headings read alike, the source gives them in different places.

Key:
[1] = test system: Key Grass and Sedge Weeds as well as Grass Crops; assay: Post-emergent Test II herbicidal activity (Table 16); type: in vivo; conditions: post-emergence, 336 h; for pest or weed control at 35 g/ha: 35 g ai/ha; for pest or weed control at 70 g/ha: 70 g ai/ha; for pest or weed control at 140 g/ha: 140 g ai/ha
Outline: (§1)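 Visual injury rating (0 = none, 100 = complete kill) taken 14 d after treatment, relative to untreated plants. Compounds in acetone/DMSO with crop oil concentrate and Triton X-155 were track-sprayed at 187 L/ha onto seedlings at the first-second true leaf stage.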

[2] = test system: Key Broadleaf Weed and Crop Species; assay: Post-emergent Test II herbicidal activity (Table 15); type: in vivo; conditions: post-emergence, 336 h, 14 d; for pest or weed control at 35 g/ha: 35 g ai/ha; for pest or weed control at 70 g/ha: 70 g ai/ha; for pest or weed control at 140 g/ha: 140 g ai/ha
Outline: as §1

[3] = Cyperus esculentus, yellow nutsedge (Cyperus esculentus), 14 days after application, read-out: Visual Growth Reduction (%) 14 Days After Application CYPES
[4] = Echinochloa crus-galli, barnyardgrass (Echinochloa crus-galli), 14 days after application, read-out: Visual Growth Reduction (%) 14 Days After Application ECHCG
[5] = Oryza sativa, rice (Oryza sativa), 14 days after application, read-out: Visual Growth Reduction (%) 14 Days After Application ORYSA
[6] = Setaria faberi, giant foxtail (Setaria faberi), 14 days after application, read-out: Visual Growth Reduction (%) 14 Days After Application SETFA
[7] = Triticum aestivum, wheat, spring (Triticum aestivum), 14 days after application, read-out: Visual Growth Reduction (%) 14 Days After Application TRZAS
[8] = Zea mays, maize, corn (Zea mays), 14 days after application, read-out: Visual Growth Reduction (%) 14 Days After Application ZEAMX
[9] = Abutilon theophrasti, velvetleaf (Abutilon theophrasti), read-out: Visual Growth Reduction (%) 14 Days After Application, ABUTH
[10] = Amaranthus retroflexus, redroot pigweed (Amaranthus retroflexus), read-out: Visual Growth Reduction (%) 14 Days After Application, AMARE
[11] = Brassica napus, oilseed rape, canola (Brassica napus), read-out: Visual Growth Reduction (%) 14 Days After Application, BRSNN
[12] = Chenopodium album, lambsquarters (Chenopodium album), read-out: Visual Growth Reduction (%) 14 Days After Application, CHEAL
[13] = Euphorbia heterophylla, wild poinsettia (Euphorbia heterophylla), read-out: Visual Growth Reduction (%) 14 Days After Application, EPHHL
[14] = Helianthus annuus, sunflower (Helianthus annuus), read-out: Visual Growth Reduction (%) 14 Days After Application, HELAN
[15] = Cyperus esculentus, yellow nutsedge (Cyperus esculentus), 14 d, read-out: Visual Growth Reduction (%) 14 Days After Application, CYPES
[16] = Echinochloa crus-galli, barnyardgrass (Echinochloa crus-galli), 14 d, read-out: Visual Growth Reduction (%) 14 Days After Application, ECHCG
[17] = Oryza sativa, rice (Oryza sativa), 14 d, read-out: Visual Growth Reduction (%) 14 Days After Application, ORYSA
[18] = Setaria faberi, giant foxtail (Setaria faberi), 14 d, read-out: Visual Growth Reduction (%) 14 Days After Application, SETFA
[19] = Triticum aestivum, wheat, spring (Triticum aestivum), 14 d, read-out: Visual Growth Reduction (%) 14 Days After Application, TRZAS
[20] = Zea mays, maize, corn (Zea mays), 14 d, read-out: Visual Growth Reduction (%) 14 Days After Application, ZEAMX

SMILES	melting point [°C]	pest or weed control at 35 g/ha [2, 9] [%]	pest or weed control at 70 g/ha [2, 9] [%]	pest or weed control at 140 g/ha [2, 9] [%]	pest or weed control at 35 g/ha [2, 10] [%]	pest or weed control at 70 g/ha [2, 10] [%]	pest or weed control at 140 g/ha [2, 10] [%]	pest or weed control at 35 g/ha [2, 11] [%]	pest or weed control at 70 g/ha [2, 11] [%]	pest or weed control at 140 g/ha [2, 11] [%]	pest or weed control at 35 g/ha [2, 12] [%]	pest or weed control at 70 g/ha [2, 12] [%]	pest or weed control at 140 g/ha [2, 12] [%]	pest or weed control at 35 g/ha [2, 13] [%]	pest or weed control at 70 g/ha [2, 13] [%]	pest or weed control at 140 g/ha [2, 13] [%]	pest or weed control at 35 g/ha [2, 14] [%]	pest or weed control at 70 g/ha [2, 14] [%]	pest or weed control at 140 g/ha [2, 14] [%]	further results
COc1c(N)nc(-c2ccc3sccc3c2)nc1C(=O)O [Compound 3.09]	137 to 139	0 to 29	0 to 29	45 to 59	30 to 44	75 to 84	85 to 94	45 to 59	85 to 94	95 to 100	85 to 94	85 to 94	95 to 100	95 to 100	95 to 100	95 to 100	60 to 74	75 to 84	85 to 94	pest or weed control at 35 g/ha [1, 3]: 0 to 29%; pest or weed control at 70 g/ha [1, 3]: 0 to 29%; pest or weed control at 140 g/ha [1, 3]: 0 to 29%; pest or weed control at 35 g/ha [1, 4]: 85 to 94%; pest or weed control at 70 g/ha [1, 4]: 85 to 94%; pest or weed control at 140 g/ha [1, 4]: 85 to 94%; pest or weed control at 35 g/ha [1, 5]: 0 to 29%; pest or weed control at 70 g/ha [1, 5]: 0 to 29%; pest or weed control at 140 g/ha [1, 5]: 0 to 29%; pest or weed control at 35 g/ha [1, 6]: 0 to 29%; pest or weed control at 70 g/ha [1, 6]: 0 to 29%; pest or weed control at 140 g/ha [1, 6]: 0 to 29%; pest or weed control at 35 g/ha [1, 7]: 60 to 74%; pest or weed control at 70 g/ha [1, 7]: 75 to 84%; pest or weed control at 140 g/ha [1, 7]: 85 to 94%; pest or weed control at 35 g/ha [1, 8]: 60 to 74%; pest or weed control at 70 g/ha [1, 8]: 75 to 84%; pest or weed control at 140 g/ha [1, 8]: 85 to 94%
COC(=O)c1nc(-c2cc3occc3cc2F)cc(N)c1Cl [Compound 2.12]	130	85 to 94	95 to 100	95 to 100	95 to 100	95 to 100	95 to 100	75 to 84	85 to 94	95 to 100	95 to 100	95 to 100	95 to 100	95 to 100	95 to 100	95 to 100	30 to 44	60 to 74	60 to 74	pest or weed control at 35 g/ha [1, 15]: 0 to 29%; pest or weed control at 70 g/ha [1, 15]: 0 to 29%; pest or weed control at 140 g/ha [1, 15]: 0 to 29%; pest or weed control at 35 g/ha [1, 16]: 95 to 100%; pest or weed control at 70 g/ha [1, 16]: 95 to 100%; pest or weed control at 140 g/ha [1, 16]: 95 to 100%; pest or weed control at 35 g/ha [1, 17]: 0 to 29%; pest or weed control at 70 g/ha [1, 17]: 0 to 29%; pest or weed control at 140 g/ha [1, 17]: 0 to 29%; pest or weed control at 35 g/ha [1, 18]: 45 to 59%; pest or weed control at 70 g/ha [1, 18]: 60 to 74%; pest or weed control at 140 g/ha [1, 18]: 60 to 74%; pest or weed control at 35 g/ha [1, 19]: 0 to 29%; pest or weed control at 70 g/ha [1, 19]: 0 to 29%; pest or weed control at 140 g/ha [1, 19]: 0 to 29%; pest or weed control at 35 g/ha [1, 20]: 0 to 29%; pest or weed control at 70 g/ha [1, 20]: 30 to 44%; pest or weed control at 140 g/ha [1, 20]: 60 to 74%
